Data from US10793557B2, “Sting agonist compounds” (Merck Sharp & Dohme Corp., priority 2018, dated 2020).

What was measured:
[1] = test system: secretion of interferon-beta from THP1 cells; assay: IFN-β secretion in THP1 cell culture (5 h); format: cell-based; conditions: Homo sapiens, THP-1, 5 h, compound at 30 μM, 30 uM cGAMP = 100%, read-out: % Effect at 30 μM relative to 2′3′-cGAMP
In short: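 IFN-β in supernatant measured by AlphaLISA after a 5 h, 37 °C incubation of THP1 cells with compound (10 concentrations, 30000 down to 1.5 nM, 0.3% DMSO) in low-serum RPMI. Values scaled between DMSO and 30 uM cGAMP controls; 4-parameter curve fit yields EC50.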

full-length HAQ STING = target: T1, full-length HAQ STING (Homo sapiens, UniProt Q86WV6, G230A/H232R/R293Q/R71H); assay: 3H-cGAMP filtration binding assay (HAQ STING); conditions: competition with tritiated cGAMP, HAQ STING membrane
T1 construct: AviTag (after GG linker) (C); HRV3C cleavage site (after GS linker) (C); HIS8 (C); made in house; host or cells: Trichoplusia ni (Hi-Five) insect cells infected with baculovirus (virus generated and amplified in Sf21 cells); used as a washed membrane preparation
T1 sequence (Q86WV6 with tags, fused parts or gaps R71H/G230A/H232R/R293Q): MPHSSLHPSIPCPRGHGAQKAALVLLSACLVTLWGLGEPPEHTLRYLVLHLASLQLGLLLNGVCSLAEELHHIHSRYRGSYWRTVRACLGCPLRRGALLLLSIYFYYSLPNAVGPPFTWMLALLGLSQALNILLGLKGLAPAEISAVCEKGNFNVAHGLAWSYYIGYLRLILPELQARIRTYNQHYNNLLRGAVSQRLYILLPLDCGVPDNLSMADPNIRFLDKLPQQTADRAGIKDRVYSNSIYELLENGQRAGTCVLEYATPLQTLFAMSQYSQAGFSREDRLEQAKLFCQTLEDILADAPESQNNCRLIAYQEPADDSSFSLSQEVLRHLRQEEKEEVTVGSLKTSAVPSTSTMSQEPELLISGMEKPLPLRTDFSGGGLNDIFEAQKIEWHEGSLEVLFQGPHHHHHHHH
In short: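 Hi-Five (T. ni) membranes overexpressing the STING variant (2.2 ug/ml working) preincubated with compound 60 min at RT in PBS, then [3H]cGAMP (8 nM working stock) added for 60 min at RT. Bound radioactivity captured on GF/B filters and counted by scintillation; EC50 from 4-parameter fit of control-normalized activity.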

full-length WT STING = target: T2, full-length WT STING (Homo sapiens, UniProt Q86WV6, H232R); assay: 3H-cGAMP filtration binding assay (WT STING); conditions: competition with tritiated cGAMP, WT STING membrane
T2 construct: AviTag (after gg linker) (C); HRV3C cleavage site (after gs linker) (C); HIS8 (C); made in house; host or cells: Trichoplusia ni (Hi-Five) insect cells infected with baculovirus (virus generated and amplified in Sf21 cells); used as a washed membrane preparation
T2 sequence (Q86WV6 with tags, fused parts or gaps H232R): as the sequence (Q86WV6 with tags, fused parts or gaps R71H/G230A/H232R/R293Q) above, with H71R, A230G, Q293R counted along it
In short: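 EC50 values come from 4-parameter fits of remaining filter-bound tritium versus log concentration (10-point, 1:3 dilution). Insect-cell membranes carrying full-length WT STING were incubated 60 min at RT with compound and tritiated cGAMP (16 nM working stock) before filtration.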

| Compound | activation at 30 µM [1] | EC50 (full-length HAQ STING) | EC50 (full-length WT STING) |
| --- | --- | --- | --- |
| COc1cc2sc(CC[C@H](C)C(=O)O)cc2c(F)c1OCCCOc1c(OC)cc2sc(C(=O)C[C@H](C)C(=O)O)cc2c1F [Example 101, (S)-4-(5-(3-((2-((S)-3-carboxybutyl)-4-fluoro-6-methoxybenzo[b]thiophen-5-yl)oxy)propoxy)-4-fluoro-6-methoxybenzo[b]thiophen-2-yl)-2-methyl-4-oxobutanoic acid] | 85% | 1 nM | 2 nM |
| COc1cc2sc(C(=O)C[C@H](C)C(=O)O)cc2cc1OCCCCCOc1cc2cc(C(=O)C[C@H](C)C(=O)O)sc2cc1OC [Example 102, (2S,2′S)-4,4′-(5,5′-(pentane-1,5-diylbis(oxy))bis(6-methoxybenzo[b]thiophene-5,2-diyl))bis(2-methyl-4-oxobutanoic acid)] | 69% | 15 nM | 213 nM |
| COc1cc2sc(C(=O)C[C@H](C)C(=O)O)cc2cc1OCCCCCOc1c(OC)cc2sc(C(=O)C[C@H](C)C(=O)O)cc2c1F [Example 103, (S)-4-(5-((5-((2-((S)-3-carboxybutanoyl)-4-fluoro-6-methoxybenzo[b]thiophen-5-yl)oxy)pentyl)oxy)-6-methoxybenzo[b]thiophen-2-yl)-2-methyl-4-oxobutanoic acid] | 79% | 22 nM | 371 nM |
| COc1cc2sc(C(=O)C[C@H](C)C(=O)O)cc2cc1OCCCCCOc1cc2sc(C(=O)C[C@H](C)C(=O)O)cc2cc1OC [Example 104, (S)-4-(5-((5-((2-((S)-3-carboxybutanoyl)-5-methoxybenzo[b]thiophen-6-yl)oxy)pentyl)oxy)-6-methoxybenzo [b]thiophen-2-yl)-2-methyl-4-oxobutanoic acid] | 35% | 467 nM | 8900 nM |
| COc1cc2sc(C(=O)C[C@H](C)C(=O)O)cc2c(F)c1CCCOc1c(OC)cc2sc(CC[C@H](C)C(=O)O)cc2c1F [Example 105, (S)-4-(5-(3-((2-((S)-3-carboxybutyl)-4-fluoro-6-methoxybenzo[b]thiophen-5-yl)oxy)propyl)-4-fluoro-6-methoxybenzo[b]thiophen-2-yl)-2-methyl-4-oxobutanoic acid] | 130% | 39 nM | 311 nM |
| COc1cc2sc(C(=O)C[C@H](C)C(=O)O)cc2c(F)c1CCCOc1c(OC)cc2sc(C(=O)[C@@H]3CC3C(=O)O)cc2c1F (stereo partly drawn) [Example 106, trans-2-(5-(3-(2-((S)-3-carboxybutanoyl)-4-fluoro-6-methoxybenzo[b]thiophen-5-yl)propoxy)-4-fluoro-6-methoxybenzo[b]thiophene-2-carbonyl)cyclopropane carboxylic acid] | 74% | 10 nM | 251 nM |
| COc1cc2sc(C(=O)C[C@H](C)C(=O)O)cc2c(F)c1CCCOc1c(OC)cc2sc(C(=O)[C@@H]3CCC3C(=O)O)cc2c1F (stereo partly drawn) [Example 107, trans-2-(5-(3-(2-((S)-3-carboxybutanoyl)-4-fluoro-6-methoxybenzo[b]thiophen-5-yl)propoxy)-4-fluoro-6-methoxybenzo[b]thiophene-2-carbonyl)cyclobutane carboxylic acid] | 108% | 1 nM | 2 nM |
| COc1cc2sc(C(=O)C[C@@H](C)C(=O)O)cc2cc1CCCOc1c(OC)cc2sc(C(=O)C[C@@H](C)C(=O)O)cc2c1F [Example 108, (R)-4-(5-(3-((2-((R)-3-carboxybutanoyl)-4-fluoro-6-methoxybenzo[b]thiophen-5-yl)oxy)propyl)-6-methoxybenzo[b]thiophen-2-yl)-2-methyl-4-oxobutanoic acid] | 86% | 35 nM | 244 nM |
| COc1cc2sc(C(=O)C[C@H](C)C(=O)O)cc2cc1CCCOc1c(OC)cc2sc(C(=O)C[C@@H](C)C(=O)O)cc2c1F [Example 109, (S)-4-(5-(3-((2-((R)-3-carboxybutanoyl)-4-fluoro-6-methoxybenzo[b]thiophen-5-yl)oxy)propyl)-6-methoxybenzo[b]thiophen-2-yl)-2-methyl-4-oxobutanoic acid] | 96% | 10 nM | 39 nM |
